In the experiment the test system is CD2F1 mice, L1210 leukemia ip, survival T/C. Nature of the experiment: NCI In Vivo Anticancer Drug Screen. Data for tumor model L1210 Leukemia (intraperitoneal) in CD2F1 (CDF1) mice. The conditions noted are these: higher = longer survival. Summed up: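 Mice carrying a transplanted tumor received test compound or vehicle alone. The value is the measurement in the treated group divided by that in the vehicle-treated control group.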

Where [1] appears, read: endpoint: mean survival time, dose: 6.25 mg/kg/injection, schedule: Q04DX003 (ip), vehicle: saline with Tween-80.
Where [2] appears, read: endpoint: mean survival time, dose: 12.5 mg/kg/injection, schedule: Q04DX003 (ip), vehicle: saline with Tween-80.
The mark [3] stands for this setting: endpoint: mean survival time, dose: 25.0 mg/kg/injection, schedule: Q04DX003 (ip), vehicle: saline with Tween-80.
[4] abbreviates: endpoint: mean survival time, dose: 50.0 mg/kg/injection, schedule: Q04DX003 (ip), vehicle: saline with Tween-80.
The mark [5] stands for this setting: endpoint: mean survival time, dose: 100.0 mg/kg/injection, schedule: Q01DX001 (ip), vehicle: saline with Tween-80.
Setting [6] is: endpoint: mean survival time, dose: 200.0 mg/kg/injection, schedule: Q01DX001 (ip), vehicle: saline with Tween-80.
The mark [7] stands for this setting: endpoint: mean survival time, dose: 400.0 mg/kg/injection, schedule: Q01DX001 (ip), vehicle: saline with Tween-80.
[8] abbreviates: endpoint: mean survival time, dose: 100.0 mg/kg/injection, schedule: Q04DX003 (ip), vehicle: saline with Tween-80.
Setting [9] is: endpoint: mean survival time, dose: 200.0 mg/kg/injection, schedule: Q04DX003 (ip), vehicle: saline with Tween-80.
The mark [10] stands for this setting: endpoint: mean survival time, dose: 400.0 mg/kg/injection, schedule: Q04DX003 (ip), vehicle: saline with Tween-80.
Setting [11] is: endpoint: mean survival time, dose: 50.0 mg/kg/injection, schedule: Q04DX003 (ip), vehicle: Klucel (hydroxypropylcellulose) (HPC).
Where [12] appears, read: endpoint: mean survival time, dose: 100.0 mg/kg/injection, schedule: Q04DX003 (ip), vehicle: Klucel (hydroxypropylcellulose) (HPC).
Where [13] appears, read: endpoint: mean survival time, dose: 200.0 mg/kg/injection, schedule: Q04DX003 (ip), vehicle: Klucel (hydroxypropylcellulose) (HPC).
Where [14] appears, read: endpoint: mean survival time, dose: 400.0 mg/kg/injection, schedule: Q04DX003 (ip), vehicle: Klucel (hydroxypropylcellulose) (HPC).
[15] abbreviates: endpoint: mean survival time, dose: 100.0 mg/kg/injection, schedule: Q01DX009 (ip), vehicle: saline with Tween-80.
Where [16] appears, read: endpoint: mean survival time, dose: 200.0 mg/kg/injection, schedule: Q01DX009 (ip), vehicle: saline with Tween-80.
[17] abbreviates: endpoint: mean survival time, dose: 400.0 mg/kg/injection, schedule: Q01DX009 (ip), vehicle: saline with Tween-80.
The mark [18] stands for this setting: endpoint: mean survival time, dose: 100.0 mg/kg/injection, schedule: Q04DX002 (ip), vehicle: saline with Tween-80.
The mark [19] stands for this setting: endpoint: mean survival time, dose: 200.0 mg/kg/injection, schedule: Q04DX002 (ip), vehicle: saline with Tween-80.
The mark [20] stands for this setting: endpoint: mean survival time, dose: 400.0 mg/kg/injection, schedule: Q04DX002 (ip), vehicle: saline with Tween-80.

“And” between values parts separate entries of the source, which are not always exact repeats. Equal entries are not always repeated. Inconclusive results and toxic doses are left out.

Regarding `CC(=O)c1cc2ccccc2o1`, the T/C is, setting by setting: under setting [1], 96 % of control; under setting [2], 96 % of control; under setting [3], 101 % of control; under setting [4], 95 % of control.
Regarding `[Cl][Pt][Cl].c1ccc([PH+](c2ccccc2)c2ccccc2)cc1.c1ccc([PH+](c2ccccc2)c2ccccc2)cc1`, the T/C reads like this: under setting [5], 95 % of control; under setting [6], 92 % of control; under setting [7], 92 % of control.
For `CC#CCOCC(O)CCl` (centres undefined), the T/C (endpoint: median survival time, dose: 50.0 mg/kg/injection, schedule: Q01DX005 (ip), vehicle: saline) is 97 % of control; the T/C (endpoint: median survival time, dose: 50.0 mg/kg/injection, schedule: Q01DX005 (ip), vehicle: suspension in saline) was 104 % of control; the T/C (endpoint: median survival time, dose: 100.0 mg/kg/injection, schedule: Q01DX005 (ip), vehicle: saline) was 94 % of control; the T/C (endpoint: median survival time, dose: 100.0 mg/kg/injection, schedule: Q01DX005 (ip), vehicle: suspension in saline) was 101 % of control; the T/C (endpoint: median survival time, dose: 200.0 mg/kg/injection, schedule: Q01DX005 (ip), vehicle: saline) was 97 % of control; the T/C (endpoint: median survival time, dose: 200.0 mg/kg/injection, schedule: Q01DX005 (ip), vehicle: suspension in saline) was 96 % of control. Also, the T/C (endpoint: median survival time, dose: 400.0 mg/kg/injection, schedule: Q01DX005 (ip), vehicle: saline) was 117 % of control.
Consider `NC(N)=NCC(=O)O`, for which the T/C was 94 % of control under setting [8], 102 % of control under setting [9] and 98 % of control under setting [10].
For `O=[N+]([O-])c1cnc(C2=C(O)c3ccccc3CC2)s1`, the T/C was 96 % of control (endpoint: mean survival time, dose: 25.0 mg/kg/injection, schedule: Q01DX001 (ip), vehicle: saline with Tween-80); 96 % of control (endpoint: mean survival time, dose: 50.0 mg/kg/injection, schedule: Q01DX001 (ip), vehicle: saline with Tween-80); 100 % of control under setting [5].
With `CCCCOB=O`, the T/C was 96 % of control under setting [8], 98 % of control under setting [9] and 95 % of control under setting [10].
Take `CC(C)(C)C(=O)/C=C/c1ccccc1`: the T/C under setting [11] was 96 % of control; the T/C under setting [12] is 98 % of control and 102 % of control; the T/C under setting [13] was 98 % of control and 110 % of control; the T/C under setting [14] was 106 % of control.
Consider `C#CCCCCCCCCCCC1(c2ccccc2)OCCO1`, for which the T/C under setting [12] is 94 % of control, the T/C under setting [13] was 97 % of control and the T/C under setting [14] was 95 % of control.
For `C[n+]1ccccc1/C=C/c1cccc([N+](=O)[O-])c1`, the T/C (endpoint: mean survival time, dose: 5.0 mg/kg/injection, schedule: Q01DX009 (ip), vehicle: saline with Tween-80) was 100 % of control; the T/C (endpoint: mean survival time, dose: 10.0 mg/kg/injection, schedule: Q01DX009 (ip), vehicle: saline with Tween-80) was 105 % of control; the T/C (endpoint: mean survival time, dose: 20.0 mg/kg/injection, schedule: Q01DX009 (ip), vehicle: saline with Tween-80) is 107 % of control.
As to `O=C1OC(=O)C2C3CC(C4OC34)C12` (centres undefined), the T/C by setting is: under setting [15], 103 % of control; under setting [16], 97 % of control; under setting [17], 87 % of control.
Turning to `CC1(C)C=Cc2ccccc21`, the T/C was 113 % of control (endpoint: mean survival time, dose: 50.0 mg/kg/injection, schedule: Q01DX009 (ip), vehicle: saline with Tween-80) and 113 % of control under setting [15].
With `CC12CCC(=O)C=C1CCC1C2C(=O)CC2(C)C1CCC2(O)C(=O)Cn1c(=O)[nH]cc(F)c1=O` (centres undefined), the T/C was 103 % of control (endpoint: mean survival time, dose: 12.5 mg/kg/injection, schedule: Q04DX003 (ip), vehicle: Klucel (hydroxypropylcellulose) (HPC)); 97 % of control (endpoint: mean survival time, dose: 25.0 mg/kg/injection, schedule: Q04DX003 (ip), vehicle: Klucel (hydroxypropylcellulose) (HPC)); 100 % of control under setting [11]; 97 % of control under setting [12]; 97 % of control under setting [13].
Turning to `CNCC(=O)NCCCCCCCCCCNC(=O)CNC`, the T/C is 100 % of control (endpoint: mean survival time, dose: 12.5 mg/kg/injection, schedule: Q01DX010 (ip), vehicle: saline); 101 % of control (endpoint: mean survival time, dose: 25.0 mg/kg/injection, schedule: Q01DX010 (ip), vehicle: saline); 97 % of control (endpoint: mean survival time, dose: 50.0 mg/kg/injection, schedule: Q01DX010 (ip), vehicle: saline); 95 % of control (endpoint: mean survival time, dose: 100.0 mg/kg/injection, schedule: Q01DX010 (ip), vehicle: saline).
For `CC(C(=O)O)C1CCC2(C)CCC(=O)C(C)(Cl)C2(O)C1=O` (centres undefined), the T/C is 96 % of control under setting [18], 100 % of control under setting [19] and 100 % of control under setting [20].
In the case of `O=C(CC(NC(=O)OCc1ccccc1)C(=O)O)OCc1ccccc1` (centres undefined), the T/C under setting [8] was 103 % of control, the T/C under setting [9] was 95 % of control and the T/C under setting [10] is 102 % of control.
Turning to `CCC1(c2cccc([N+](=O)[O-])c2)OCCO1`, the T/C by setting is: under setting [5], 94 % of control; under setting [15], 102 % of control; under setting [8], 102 % of control; under setting [6], 94 % of control; under setting [16], 110 % of control; under setting [9], 107 % of control. Besides, the T/C under setting [7] is 94 % of control, the T/C under setting [17] was 103 % of control and the T/C under setting [10] is 102 % of control.
In the case of `CCCCCCCCCCCC[N+]1([O-])CCOCC1`, the T/C by setting is: (endpoint: mean survival time, dose: 25.0 mg/kg/injection, schedule: Q04DX002 (ip), vehicle: saline with Tween-80) 101 % of control; (endpoint: mean survival time, dose: 50.0 mg/kg/injection, schedule: Q04DX002 (ip), vehicle: saline with Tween-80) 97 % of control; under setting [18], 108 % of control.
Consider `CCN(CC)Cc1ccc(Nc2cc(C)nc(/N=C(\N)Nc3ccc(Cl)c(Cl)c3)n2)cc1`, for which the T/C by setting is: under setting [2], 98 % of control; under setting [3], 95 % of control.
Consider `CC(=O)Nc1nc(Br)c2ccccc2c1-c1ccc(N(CCCl)CCCl)cc1`, for which the T/C is, setting by setting: (endpoint: mean survival time, dose: 3.13 mg/kg/injection, schedule: Q04DX003 (ip), vehicle: DMSO) 104 % of control; (endpoint: mean survival time, dose: 6.25 mg/kg/injection, schedule: Q04DX003 (ip), vehicle: DMSO) 102 % of control; (endpoint: mean survival time, dose: 12.5 mg/kg/injection, schedule: Q04DX003 (ip), vehicle: DMSO) 101 % of control; (endpoint: mean survival time, dose: 25.0 mg/kg/injection, schedule: Q04DX003 (ip), vehicle: DMSO) 98 % of control.
`O=C1CCc2cccc3cccc(c23)N1`: the T/C is 98 % of control under setting [8], 98 % of control under setting [9] and 90 % of control under setting [10].
For the molecule `C=C[CH2][Sn]([c]1ccccc1)([c]1ccccc1)[c]1ccccc1`, the T/C is, setting by setting: under setting [4], 87 % of control; under setting [8], 91 % of control.
As for `O=c1c2ccccc2sc2c1ccc1ccccc12`, the T/C reads like this: under setting [5], 100 % of control; under setting [6], 101 % of control; under setting [7], 94 % of control.
Take `CC([NH-])CC[NH-].[Cl][Pt+2][Cl]` (centres undefined): under setting [1], the T/C is 151 % of control.
Take `CC(=O)Nc1c(N)nc(Nc2nc3ccccc3[nH]2)[nH]c1=O`: the T/C is 93 % of control under setting [15]; 97 % of control under setting [8]; 95 % of control under setting [16]; 96 % of control under setting [9]; 93 % of control under setting [17]; 87 % of control under setting [10].
Consider `CC1(C)CC(O)C2(C)CCC3(C)C(=CCC4C5(C)CCC(O)C(C)(CO)C5CCC43C)C2C1` (centres undefined) (tested in a mixture with another compound), for which the T/C is, setting by setting: under setting [18], 102 % of control; under setting [19], 98 % of control; under setting [20], 107 % of control.
In the case of `CCCNC(C)(C)C(SS)c1ccc(C(F)(F)F)cc1` (centres undefined), the T/C was 100 % of control (endpoint: mean survival time, dose: 200.0 mg/kg/injection, schedule: Q04DX003 (ip), vehicle: other) and 90 % of control (endpoint: mean survival time, dose: 400.0 mg/kg/injection, schedule: Q04DX003 (ip), vehicle: other).
For the molecule `CCCCCCCCCCCC(C)CC(CN)C(=O)OCC` (centres undefined), the T/C is 92 % of control (endpoint: mean survival time, dose: 100.0 mg/kg/injection, schedule: Q04DX002 (ip), vehicle: saline); 100 % of control (endpoint: mean survival time, dose: 200.0 mg/kg/injection, schedule: Q04DX002 (ip), vehicle: saline); 100 % of control (endpoint: mean survival time, dose: 400.0 mg/kg/injection, schedule: Q04DX002 (ip), vehicle: saline).

The values above are taken from PubChem BioAssay AID256 (DTP/NCI, 2004).
